The source of these data is patent publication US20110092476A1, “Bicycloheteroaryl compounds as P2X7 modulators and uses thereof” (Renovis, Inc., priority 2006, published 2011).

pIC50: −log10 of the molar value.

One test deals with T1, P2X7 receptor (Homo sapiens, UniProt Q99572).
T1 construct: host or cells: THP-1 cells differentiated with LPS and IFN-γ
T1 sequence (Q99572 1-595): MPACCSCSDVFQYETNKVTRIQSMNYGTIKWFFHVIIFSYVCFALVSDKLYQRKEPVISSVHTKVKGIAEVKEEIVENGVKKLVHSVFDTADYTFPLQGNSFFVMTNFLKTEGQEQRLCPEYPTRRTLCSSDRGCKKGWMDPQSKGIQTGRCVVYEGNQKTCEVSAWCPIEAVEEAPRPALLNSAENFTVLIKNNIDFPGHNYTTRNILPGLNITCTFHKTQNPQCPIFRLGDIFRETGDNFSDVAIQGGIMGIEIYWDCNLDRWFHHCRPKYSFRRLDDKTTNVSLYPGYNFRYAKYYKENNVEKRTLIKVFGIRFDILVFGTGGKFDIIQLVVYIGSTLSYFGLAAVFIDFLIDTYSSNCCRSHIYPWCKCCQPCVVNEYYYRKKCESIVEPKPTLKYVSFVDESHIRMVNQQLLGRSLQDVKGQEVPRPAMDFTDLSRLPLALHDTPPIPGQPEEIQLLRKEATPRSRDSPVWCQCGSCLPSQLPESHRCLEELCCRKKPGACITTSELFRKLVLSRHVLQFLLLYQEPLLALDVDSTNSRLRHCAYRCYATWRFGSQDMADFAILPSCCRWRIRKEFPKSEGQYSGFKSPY
The test is described as follows: IL-1β release assay in differentiated THP-1 cells stimulated with BzATP (Example 9). Type of test: cell-based. Conditions: 0.1 μM compound (symbols *); differentiated THP-1 cells, BzATP 250 uM; read-out: IL-1β % Inhib. @ 0.3 or 0.1 uM. The protocol: THP-1 cells (ATCC Cat #285-IF-100) are plated in 96 well plates at a concentration of 200,000 cells per well and allowed to differentiate in RPMI-1640 media (ATCC Cat #30-2001) containing 10% FBS, 100 IU/mL penicillin, 100 ug/mL streptomycin, 100 ng/mL LPS and 100 ng/mL IFN-γ for 16 hours. Following differentiation, the cells are treated for an additional 2 hours in RPMI-1640 media containing 100 IU/mL penicillin, 100 ug/mL streptomycin and fresh LPS at 100 ng/mL. The cells are then pretreated for 30 minutes with the compound of interest at the appropriate concentration in RPMI media containing 100 IU/mL penicillin, 100 ug/mL streptomycin. Following the pretreatment 2′,3′-O-(4-benzoylbenzoyl)-adenosine 5′-triphosphate (Sigma Aldrich Cat #B6396) is added to a final concentration of 250 uM and the cells are incubated for an additional 45 minutes. 30 uL of cell supernatant is then collected and IL-1β levels determined via ELISA (R&D systems Cat. #HSLB50) according to manufacturer's recommendations using the Tecan Safire plate reader. Background adjusted IL-1β levels of drug treated and non-treated cells are used to calculate the percent inhibition.
The compounds set forth in Table 1 were tested for activity in a cellular model as described herein. Specifically, cells were pretreated with differing amounts of the compound under test and released IL-1β determined as in Example 9, above. Measurements were made and IC50 values, presented in Table 2, below, were determined by fitting the data to a four parameter logistic equation using GraphPad Prism software (GraphPad Software, Inc). The equation may be expressed by the following formula:
Y=Bottom+(Top−Bottom)/(1+10̂((Log EC50−X)*HillSlope))
Where X is the logarithm of concentration, Y is the response and Y starts at Bottom and goes to Top with a sigmoid shape.
`COc1ccc(CC(=O)Nc2cccc3c(=O)n(C(C)CO)ccc23)cc1OC` (stereo not shown) [Compound 109]: the inhibition at 0.1 µM was 0 to 25%. On the same count and under the same terms, the figure for `COc1ccc(C(=O)Nc2cccc3c(=O)n(C(C)CO)ccc23)cc1C` (stereo not shown) [Compound 123] is 0 to 25%; for `CC(O)Cn1ccc2c(NC(=O)CCCc3ccccc3)cccc2c1=O` (stereo not shown) [Compound 163] it is 0 to 25%. Still for that read-out and setting: the figure for `Cc1cccc(C(=O)Nc2cccc3c(=O)n(CC(C)O)ccc23)c1C` (stereo not shown) [Compound 140] is 0 to 25%; for `CC(C(=O)Nc1cccc2c(=O)n(CC3(O)CCCCC3)ccc12)c1ccccc1` (stereo not shown) [Compound 24] it is 26 to 50%. Same read-out and setting: to `CCOc1ccc(C(=O)Nc2cccc3c(=O)n(C(C)CO)ccc23)cc1` (stereo not shown) [Compound 101] belongs 0 to 25%. With `CC(O)Cn1ccc2c(NC(=O)CCc3ccccc3Cl)cccc2c1=O` (stereo not shown) [Compound 133], the inhibition at 0.1 µM is 26 to 50%. Still for that read-out and setting: to `Cc1ccccc1CCC(=O)Nc1cccc2c(=O)n(CC(C)(C)O)ccc12` [Compound 187] belongs 0 to 25%. As for `CC(CO)n1ccc2c(NC(=O)Cc3ccc4c(c3)OCO4)cccc2c1=O` (stereo not shown) [Compound 113], the inhibition at 0.1 µM lay within 0 to 25%. Same read-out and setting: to `CC(CO)n1ccc2c(NC(=O)c3cccc4ccccc34)cccc2c1=O` (stereo not shown) [Compound 106] belongs 0 to 25%; to `Cc1cccc(C(=O)Nc2cccc3c(=O)n(CC(C)O)ccc23)c1` (stereo not shown) [Compound 144], 0 to 25%.

With `CC(O)Cn1ccc2c(NC(=O)Cc3ccccc3Cl)cccc2c1=O` (stereo not shown) [Compound 154], the inhibition at 0.1 µM was in the range of 0 to 25%. As for `CC(O)Cn1ccc2c(NC(=O)C(C)c3ccccc3)cccc2c1=O` (stereo not shown) [Compound 148], the inhibition at 0.1 µM was in the range of 0 to 25%. Turning to `Cc1cc(C(=O)Nc2cccc3c(=O)n(CC(C)(C)O)ccc23)ccc1Cl` [Compound 196], the inhibition at 0.1 µM lay within 0 to 25%. Consider `Cc1ccc(C(=O)Nc2cccc3c(=O)n(CC(C)O)ccc23)cc1Cl` (stereo not shown) [Compound 168], for which the inhibition at 0.1 µM lay within 0 to 25%.

In the case of `COc1ccccc1CCC(=O)Nc1cccc2c(=O)n(CC(C)O)ccc12` (stereo not shown) [Compound 149], the inhibition at 0.1 µM lay within 0 to 25%.

`O=C(Nc1cccc2c(=O)n(CC3(O)CCCCC3)ccc12)c1ccc(-c2ccccc2)o1` [Compound 9]: the inhibition at 0.1 µM was 0 to 25%. Still for that read-out and setting: to `CCOc1ccccc1CC(=O)Nc1cccc2c(=O)n(CC(C)O)ccc12` (stereo not shown) [Compound 176] belongs 0 to 25%; to `CC(O)Cn1ccc2c(NC(=O)c3ccc4c(c3)OCCCO4)cccc2c1=O` (stereo not shown) [Compound 171], 0 to 25%; to `Cc1cc(C)cc(CC(=O)Nc2cccc3c(=O)n(C(C)CO)ccc23)c1` (stereo not shown) [Compound 119], 0 to 25%.

`CCOc1ccc(C(=O)Nc2cccc3c(=O)n(CC(C)(C)O)ccc23)c(O)c1` [Compound 185]: the inhibition at 0.1 µM was in the range of 0 to 25%. The same measure, in the same setting: the figure for `COc1ccccc1CC(=O)Nc1cccc2c(=O)n(CC(C)O)ccc12` (stereo not shown) [Compound 155] is 0 to 25%.

Staying with this test, now noted: 0.1 μM compound; differentiated THP-1 cells, BzATP 250 uM; "*" symbols; read-out: IL-1β % Inhib. @ 0.3 or 0.1 uM.
Take `CC(C)(O)Cn1ccc2c(NC(=O)c3ccc(Cl)cc3Cl)cccc2c1=O` [Compound 198]: the inhibition at 0.1 µM was in the range of 0 to 25%. On the same count and under the same terms, to `CCOc1ccc(CC(=O)Nc2cccc3c(=O)n(CC(C)(C)O)ccc23)cc1` [Compound 215] belongs 26 to 50%. Still for that read-out and setting: to `Cc1ccc(C)c(C(=O)Nc2cccc3c(=O)n(CC(C)(C)O)ccc23)c1` [Compound 202] belongs 0 to 25%; to `Cc1cc(Cl)ccc1C(=O)Nc1cccc2c(=O)n(CC(C)(C)O)ccc12` [Compound 221], 26 to 50%.

The same test, now with this note: 0.3 μM compound (symbols +); differentiated THP-1 cells, BzATP 250 uM; read-out: IL-1β % Inhib. @ 0.3 or 0.1 uM.
In the case of `O=C(Cc1ccccc1)Nc1cccc2c(=O)n(CCO)ccc12` [Compound 76], the inhibition at 0.3 µM lay in the range of 0 to 25%.

On to `Cc1cccc(CCC(=O)Nc2cccc3c(=O)n(CC4(O)CCCCC4)ccc23)c1` [Compound 53], for which the inhibition at 0.3 µM lay in the range of 0 to 25%. Consider `O=C(Nc1cccc2c(=O)n(CC3(O)CCCCC3)ccc12)c1ccc2ccccc2c1` [Compound 27], for which the inhibition at 0.3 µM is 0 to 25%. As for `COc1c(C)cc(C(=O)Nc2cccc3c(=O)n(CC4(O)CCCCC4)ccc23)cc1C` [Compound 40], the inhibition at 0.3 µM was in the range of 0 to 25%.

For `Cc1cccc(C(=O)Nc2cccc3c(=O)n(CC4(O)CCCCC4)ccc23)c1Cl` [Compound 55], the inhibition at 0.3 µM lay in the range of 0 to 25%. Still for that read-out and setting: the figure for `Cc1cccc(CC(=O)Nc2cccc3c(=O)n(CC4(O)CCCCC4)ccc23)c1` [Compound 32] is 0 to 25%. In the case of `Cc1ccc(Cl)c(C(=O)Nc2cccc3c(=O)n(CC4(O)CCCCC4)ccc23)c1` [Compound 51], the inhibition at 0.3 µM was 0 to 25%. Still for that read-out and setting: to `O=C(Cc1ccccc1F)Nc1cccc2c(=O)n(CC3(O)CCCCC3)ccc12` [Compound 28] belongs 0 to 25%.

Still in this test, the particulars now being: 0.3 μM compound; differentiated THP-1 cells, BzATP 250 uM; "+" symbols; read-out: IL-1β % Inhib. @ 0.3 or 0.1 uM.
In the case of `C[C@H](C(N)=O)n1ccc2c(NC(=O)Cc3ccc(F)cc3Cl)cccc2c1=O` [Compound 291], the inhibition at 0.3 µM is more than 76%. On the same count and under the same terms, the figure for `C[C@@H](CO)n1ccc2c(NC(=O)Cc3ccc(Cl)c(Cl)c3)cccc2c1=O` [Compound 332] is more than 76%; for `C[C@H](C(N)=O)n1ccc2c(NC(=O)Cc3ccc(C#N)cc3)cccc2c1=O` [Compound 287] it is 26 to 50%. The same measure, in the same setting: to `C[C@H](C(N)=O)n1ccc2c(NC(=O)Cc3c(F)cccc3F)cccc2c1=O` [Compound 292] belongs 0 to 25%; to `C[C@@H](CO)n1ccc2c(NC(=O)Cc3ccc(C(F)(F)F)cc3)cccc2c1=O` [Compound 318], 51 to 75%. On the same count and under the same terms, to `C[C@H](C(N)=O)n1ccc2c(NC(=O)Cc3ccc(C(F)(F)F)cc3F)cccc2c1=O` [Compound 296] belongs more than 76%; to `C[C@H](CO)n1ccc2c(NC(=O)Cc3ccc(C(F)(F)F)c(F)c3)c(C3CC3)ccc2c1=O` [Compound 384, N-[6-Cyclopropyl-2-((R)-2-hydroxy-1-methyl-ethyl)-1-oxo-1,2-dihydro-isoquinolin-5-yl]-2-(3-fluoro-4-trifluoromethyl-phenyl)-acetamide], more than 76%. On to `C[C@H](C(N)=O)n1ccc2c(NC(=O)Cc3ccc(OC(F)(F)F)cc3)cccc2c1=O` [Compound 311], for which the inhibition at 0.3 µM lay in the range of 51 to 75%. The same measure, in the same setting: the figure for `CC(C)(CO)n1ccc2c(NC(=O)Cc3ccc(C(F)(F)F)cc3)cccc2c1=O` [Compound 363] is 51 to 75%; for `C[C@H](CO)n1ccc2c(NC(=O)Cc3ccc(C(F)(F)F)cc3F)c(Cl)ccc2c1=O` [Compound 378] it is more than 76%. The same measure, in the same setting: to `CC(C(=O)Nc1cccc2c(=O)n(C[C@@H]3CCCN3)ccc12)c1ccc(Cl)cc1` (stereo partly shown) [Compound 246] belongs 51 to 75%; to `CC(C)(CO)n1ccc2c(NC(=O)Cc3ccc(C(F)(F)F)cc3F)cccc2c1=O` [Compound 370], more than 76%; to `CC(=O)NCCn1ccc2c(NC(=O)Cc3ccc(C(F)(F)F)c(F)c3)cccc2c1=O` [Compound 390], 0 to 25%. Still for that read-out and setting: to `CC(C)C[C@H](CO)n1ccc2c(NC(=O)Cc3ccc(Cl)c(Cl)c3)cccc2c1=O` [Compound 275] belongs more than 76%; to `O=C(Cc1ccc(F)c(Cl)c1)Nc1cccc2c(=O)n(CCO)ccc12` [Compound 341], more than 76%; to `C[C@H](C(=O)Nc1cccc2c(=O)n([C@@H](C(N)=O)c3ccccc3)ccc12)c1ccc(Cl)c(Cl)c1` [Compound 278, (S)—N-[2-((R)-Carbamoyl-phenyl-methyl)-1-oxo-1,2-dihydro-isoquinolin-5-yl]-2-(3,4-dichloro-phenyl)-propionamide], more than 76%.

The same test, now with this note: THP-1 cells, BzATP 250 uM, IL-1β by ELISA.
`C[C@H](C(N)=O)n1ccc2c(NC(=O)Cc3ccc(OC(F)(F)F)cc3)cccc2c1=O` [Compound 311] gave a negative logarithm of the IC50 (pIC50) of 6.82. The molecule `CC(=O)NCCn1ccc2c(NC(=O)Cc3ccc(C(F)(F)F)c(F)c3)cccc2c1=O` [Compound 390] had a pIC50 of less than 6.00.
